{"source": "patent US20230203485A1", "about": "“METHODS FOR MODULATING MHC-I EXPRESSION AND IMMUNOTHERAPY USES THEREOF” (Dana-Farber Cancer Institute, Inc., priority 2020, published 2023)", "key": {"[1]": {"tested_on": "surface HLA-I", "experiment": "USP7 inhibitor treatment of MKL-1 p53-WT control and p53-KO lines, surface HLA I by flow cytometry", "type": "cell-based, human", "method": "For MCC-301 USP7 inhibitor experiments, two and a half million MCC cells were plated in a T25 flask and incubated with the USP7 inhibitor XL177A and control enantiomer XL177B at 10 μM, 1 μM, 100 nM, and 10 nM. Cells were incubated for 3 to 4 days. Post incubation, one million cells were treated with Versene (Gibco) to dissociate cell clusters. Surface Fc receptors were blocked with 5 μL Human TruStain FcX (Biolegend #422302). Surface HLA-I was stained with 5 μL of Pan HLA-Class I antibody (Clone W6/32, Santa Cruz Biotechnologies) for 30 minutes in dark at 4° C. Cells were washed with PBS and fixed with 4% paraformaldehyde fixation buffer (Biolegend). Cells were analyzed on a BD LSRFortessa. MCC-301 data are representative of 4 independent experiments. To perform statistical analysis, for each cell line, one-way ANOVA was first performed on the MFIs of the DMSO group and all experimental groups. Then, individual Welch t-tests were performed for each concentration, comparing the fold-changes of MFI (inhibitor)/mean MFI (DMSO control) between XL177A and XL177B.\nFor MKL-1 USP7 inhibitor experiments, p53-WT control lines (WT, scrambled, AAVS1) and three p53-KO lines were treated with USP7 inhibitors and assessed by flow cytometry for surface HLA I as described above for MCC-301."}, "[2]": {"tested_on": "surface HLA class I", "experiment": "USP7 inhibitor treatment of MCC lines, surface HLA-I by flow cytometry", "type": "cell-based, human", "conditions": "3 days"}, "[3]": {"tested_on": "MKL-1 control or p53 KO cells", "experiment": "Cell cycle analysis (EdU/DAPI flow cytometry)", "type": "cell-based, human", "conditions": "MKL-1 TP53-WT and TP53-KO, 100 nM, three days", "method": "1 million MKL-1 control or p53 KO cells were plated and treated with DMSO, XL177A (100 nM) or XL177B (100 nM) for three days. During the last hour of the three-day treatment, the cells were pulsed with 10 μM EdU nucleotide. The cells were collected by centrifugation, treated with Accutase™ (Stem Cell Technologies) to break apart clumps, washed with PBS and fixed using 4% Formaldehyde solution in PBS at Room temperature for 15 mins. Cells were washed with 1% BSA in PBS and resuspended in 70% ice cold ethanol and incubated at −20° C. overnight for additional fixing and permeabilization. The cells were stored in 70% ethanol at −20° C. until the day the data was acquired. On the day of data acquisition, the cells were collected by centrifugation and washed twice with PBS. The incorporated EdU in the cells were labeled with a CLICK reaction cocktail (1 mM CuSO4, 100 μM THPTA, 100 mM sodium ascorbate, and 2.2 μM Alexa 647 azide in PBS) at room temperature with rocking for 30 minutes. The samples were then washed with 1% BSA in PBS once followed by two washes with PBS and incubated with a 1 μg/ml DAPI, 100 ng/ml RNase A solution for one hour at Room temperature to stain the DNA. The samples were then passed through strainer tubes and analyzed using a BD Fortessa analyzer. The flow cytometry data was analyzed using the FlowJo Software. […]"}, "[4]": {"tested_on": "HLA-I-bound peptidomes of MCC-301 cells", "experiment": "HLA-I-bound immunopeptidome of USP7 inhibitor treated MCC-301 cells (TMT LC-MS/MS)", "type": "cell-based, human", "method": "Up to 40 million or 0.2 g of MCC cells were immunoprecipitated. Briefly, MCC cells were harvested and lysed in ice-cold lysis buffer containing […] (pH 8.0), 1 mM EDTA (pH 8.0), 0.1M sodium chloride, Triton X-100, 0.06M octyl β-d-glucopyranoside, 100 U/mL DNAse I, 1 mM phenylmethanesulfonyl fluoride (all from Sigma Aldrich), and protease inhibitor cocktail (Roche Diagnostics). Cell lysate was centrifuged at 12,700 rpm at 4° C. for 22 min. Lysate supernatant was coupled with Gammabind Plus sepharose beads (GE Healthcare) and incubated with 10 μg of HLA-I antibody (Clone W6/32, Santa Cruz Biotechnologies) at 4° C. under rotary agitation for 3 h. After incubation, the lysate-bead-antibody mixture was briefly centrifuged and the supernatant was discarded. Beads were washed with lysis buffer, consisting of wash buffer containing 40 mM Tris (pH 8.0), 1 mM EDTA (pH 8.0), 0.1M sodium chloride, 0.06M octyl β-d-glucopyranoside, and 20 mM Tris buffer, without protease inhibitors. Gel loading tips (Fisherbrand) were used to remove as much fluid from beads as possible. Peptides of up to three immunoprecipitations were combined, acid eluted, and analyzed using LC/MS-MS. Briefly, peptides were resuspended in 3% acetonitrile with 5% formic acid and loaded onto an analytical column (20-30 cm with 1.9 μm C18 Reprosil beads, Dr. Maisch HPLC GmbH); packed in-house). Peptides were eluted in a 6-30% gradient (EasyLC 1000 or 1200, Thermo Fisher Scientific) and analyzed on a QExactive Plus, Fusion Lumos, or Orbitrap Exploris 480 (Thermo Fisher Scientific). For Lumos measurements, peptides were also subjected to fragmentation if they were singly charged. For Orbitrap Exploris measurements (2 immunoprecipitations pooled, +/−IFN-γ, FIG. 3) and detection of the large T antigen peptide (3 immunoprecipitations of the MCC-367 cell line treated with IFN-γ) peptides were further fractionated using stage tip basic reverse phase separation with 2 punches of SDB-XC material (Empore 3M) and increasing concentrations of acetonitrile (5%, 10% and 30% in 0.1% NH4OH, pH 10). Fractions were analyzed on a Fusion Lumos or Orbitrap Exploris 480 equipped with a FAIMSpro interface. […]\nMass spectra were interpreted using Spectrum Mill software package v7.1 pre-Release (Broad Institute, Cambridge, Mass.). […] MS/MS spectra were searched against a protein sequence database that contained 90,904 entries, including all UCSC Genome Browser genes with hg19 annotation of the genome and its protein coding transcripts (52,788 entries), common human virus sequences (30,181 entries), recurrently mutated proteins observed in tumors from 26 tissues (4,595 entries), 264 common laboratory contaminants as well as protein sequences containing somatic mutations detected in MCC cell lines (3,076 entries). […]"}, "[5]": {"biological_target": "USP7 (Homo sapiens, UniProt Q93009)", "sequence (Q93009 whole entry)": "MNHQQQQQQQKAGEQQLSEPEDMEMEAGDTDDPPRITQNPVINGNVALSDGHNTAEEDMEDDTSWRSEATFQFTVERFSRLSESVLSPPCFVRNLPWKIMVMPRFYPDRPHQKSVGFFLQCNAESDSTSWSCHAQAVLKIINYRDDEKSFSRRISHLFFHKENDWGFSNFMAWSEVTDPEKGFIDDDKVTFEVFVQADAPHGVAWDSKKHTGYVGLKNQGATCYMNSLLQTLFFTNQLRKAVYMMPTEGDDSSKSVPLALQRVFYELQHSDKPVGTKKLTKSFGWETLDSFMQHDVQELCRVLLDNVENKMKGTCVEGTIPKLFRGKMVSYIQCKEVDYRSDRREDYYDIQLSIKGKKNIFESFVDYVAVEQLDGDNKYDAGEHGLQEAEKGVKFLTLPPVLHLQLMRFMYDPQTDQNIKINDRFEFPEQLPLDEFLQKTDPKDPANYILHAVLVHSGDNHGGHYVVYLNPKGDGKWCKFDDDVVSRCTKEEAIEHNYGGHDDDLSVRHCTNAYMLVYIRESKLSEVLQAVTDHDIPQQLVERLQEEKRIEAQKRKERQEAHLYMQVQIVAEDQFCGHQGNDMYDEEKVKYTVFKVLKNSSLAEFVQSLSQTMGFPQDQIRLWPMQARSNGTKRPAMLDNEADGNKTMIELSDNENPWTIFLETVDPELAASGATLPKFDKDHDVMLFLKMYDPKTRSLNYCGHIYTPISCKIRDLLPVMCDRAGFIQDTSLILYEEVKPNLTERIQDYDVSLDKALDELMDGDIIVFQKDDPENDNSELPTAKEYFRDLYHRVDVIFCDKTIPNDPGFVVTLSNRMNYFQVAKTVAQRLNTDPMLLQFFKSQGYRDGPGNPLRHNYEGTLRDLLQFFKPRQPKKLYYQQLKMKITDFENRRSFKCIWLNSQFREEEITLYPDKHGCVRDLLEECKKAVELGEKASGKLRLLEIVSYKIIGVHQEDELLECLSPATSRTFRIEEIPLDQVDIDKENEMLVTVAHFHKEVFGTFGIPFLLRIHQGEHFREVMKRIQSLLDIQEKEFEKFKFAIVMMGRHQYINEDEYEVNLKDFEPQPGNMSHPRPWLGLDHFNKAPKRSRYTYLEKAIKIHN", "conditions": "enantiomer control vs XL177A; cited from earlier work"}, "[6]": {"tested_on": "autologous T cells", "experiment": "IFN-γ ELISpot with patient MCC-367 PBMCs", "type": "cell-based, human", "conditions": "10 μg/ml peptide", "method": "Matching patient peripheral blood mononuclear cells (PBMCs) from patient MCC-367 were thawed, and 10^7 cells per well were seeded in 24 well plates overnight. Cells were stimulated with 10 μg/ml of the LT antigen peptide […] (identified in the MCC-367 HLA peptidome, FIG. 3F) in complete DMEM supplemented with 10% Human serum and 20 ng/ml IL-7 (PeproTech). After 3 days of stimulation, cells were supplemented with 20 units/mL IL-2 (PeproTech). After 10 days of stimulation, cells were cytokine deprived overnight. 50,000 cells per well were stimulated in an IFN-γ ELISpot assay with 10 μg/ml of the […] peptide. DMSO and an HIV-GAG peptide were used as negative controls. CEF (Mabtech) and PHA (Sigma Aldrich) were used as positive controls (not shown). ELISpot and T cell culture methods were described in detail previously."}, "[7]": {"conditions": "100 nM, three lines (MCC-277, -290, -301)"}, "[8]": {"conditions": "100 nM, two MCPyV+ lines (MCC-301 and -277)"}}, "data": [{"compound": "CN1CCN(CCC(=O)Nc2ccc3c(=O)n(CC4(O)CCN(C(=O)[C@@H](CCCNC(=O)c5ccc6c(Cl)c7c(nc6c5)CCCC7)Cc5ccccc5)CC4)cnc3c2)CC1", "note": "[XL177A]", "values": [{"measurement": "surface HLA-I relative to XL177B and DMSO", "setting": "[1]; MKL-1 TP53-KO lines", "result": "increased"}, {"measurement": "surface HLA-I relative to XL177B and DMSO", "setting": "[1]; MKL-1 TP53-WT lines", "result": "increased"}, {"measurement": "mean fold increase in expression of surface HLA class I relative to DMSO", "setting": "[2]; [7]", "result": 1.89, "unit": "fold"}, {"measurement": "range of fold increase in expression of surface HLA class I relative to DMSO", "setting": "[2]; [7]", "result": "1.60-2.27 fold"}, {"measurement": "mean fold increase in expression of surface HLA-I relative to DMSO", "setting": "[2]; [8]", "result": 2.0, "unit": "fold"}, {"measurement": "range of fold increase in expression of surface HLA-I relative to DMSO", "setting": "[2]; [8]", "result": "1.78-2.27 fold"}, {"measurement": "increase in HLA-I levels in MCC-290", "setting": "[2]; MCC-290 (MCPyV−)", "result": "more modest increase"}, {"measurement": "increase in HLA I expression in MCC-320", "setting": "[2]; MCC-320 (MCPyV−)", "result": "did not exhibit a statistically significant increase and not"}, {"measurement": "cell cycle shift", "setting": "[3]", "result": "slight cell cycle shifts from S to G1 phase"}, {"measurement": "abundance of displayed HLA-I peptides compared to XL177B and untreated cells", "setting": "[4]", "result": "higher abundances of displayed peptides"}, {"measurement": "frequency of peptides displayed on each respective HLA-I gene (HLA-A, -B, -C)", "setting": "[4]", "result": "did not affect"}, {"measurement": "percent of significantly differing peptides more abundant compared to untreated cells", "setting": "[4]; out of 282 peptides", "result": 95.7, "unit": "%"}, {"measurement": "number of peptides more abundant compared to untreated cells", "setting": "[4]; out of 282 peptides whose abundance significantly differed (P<0.05)", "result": 270, "unit": "peptides"}]}, {"compound": "CN1CCN(CCC(=O)Nc2ccc3c(=O)n(CC4(O)CCN(C(=O)[C@H](CCCNC(=O)c5ccc6c(Cl)c7c(nc6c5)CCCC7)Cc5ccccc5)CC4)cnc3c2)CC1", "note": "[XL177B]", "values": [{"measurement": "potency relative to XL177A (fold less potent)", "setting": "[5]", "result": 500, "unit": "fold"}]}, {"compound": "TSDKAIELY [peptide derived from the OBD domain of MCPyV LT, detected in the MCC-367 HLA peptidome]", "values": [{"measurement": "reactivity of autologous T cells by ELISpot", "setting": "[6]", "result": "confirmed"}]}]}
